Read-outs that look alike come from different tables or passages of the source. Square brackets hold non-standard residues; d marks the D form. Side chains are listed from the residue outwards. Peptide text beside a SMILES is read from it. * marks the point of attachment. DOTA = O=C(O)CN1CCN(CC(=O)O)CCN(CC(=O)*)CCN(CC(=O)O)CC1; NOTA = O=C(O)CN1CCN(CC(=O)O)CCN(CC(=O)*)CC1; 2Nal = N[C@@H](Cc1ccc2ccccc2c1)C(=O)O; dNMeOrn = CN[C@H](CCCN)C(=O)O; 4Amb = NCc1ccc(C(=O)O)cc1
Columns and labels:
[1] = Determination of tracer lipophilicity (logP); type: physicochemical; conditions: determined as published (method ref 22)
Description: General procedures and syntheses of the peptides are described in a recently reported protocol. Determination of tracer lipophilicity and serum stability as well as in vitro studies were performed as recently published. ^68Ga-labeling of peptides was performed as described using a fully automated system (Scintomics GmbH); briefly, the ^68Ge/^68Ga generator eluate fractions (1.25 mL) were reacted with 5 nmol of peptide. The mixture was buffered with 0.6 mL HEPES (pH = 7.4) to a final pH of 3–4 and heated to 95 °C for 5 min. After purification via one Sep-Pak C8 light cartridge, the ethanolic product fraction was diluted with PBS and used as such for the experiments.

[2] = parameters: method as in PMID 22045709; conditions: at 30 min p.i.; cited from earlier work
[3] = Biodistribution in Daudi lymphoma xenograft bearing SCID mice; type: in vivo, mouse; conditions: female, CB-17 SCID, mouse, iv, total radioactivity, mean ± SD
Description: (§1) For PET (n = 3) and biodistribution studies (n = 5), an average of 15.2 MBq [^68Ga]NOTA-pentixafor (100 μL in PBS, 145 pmol, 171 ng) with a specific activity (AS) of 104 GBq/μmol was injected intravenously into the tail vein of isofluorane anesthesized female Daudi lymphoma-bearing SCID mice. […] After static PET imaging for 15 min (Inveon Siemens μPET scanner), the mice were sacrificed (90 min p.i.), and tissues and organs of interest were dissected, weighed, and counted for radioactivity in a γ-counter. The percentage of injected dose per gram of tissue (% ID/g) was calculated; data are shown as mean ± SD.

[4] = test system: Daudi xenograft bearing CB-17 SCID mice; experiment: as above; type: in vivo, mouse; conditions: tracer only, i.v., 1.5 h p.i., mean ± SD
Description: as §1

[5] = Metabolite analysis of mouse plasma after i.v. injection; type: in vivo; conditions: CB17 SCID mouse, 50 MBq i.v., plasma at 60 min p.i., RP-HPLC with γ-counter
Description: All animal studies were conducted in accordance with the German Animal Welfare Act (Deutsches Tierschutzgesetz, approval No. 55.2-1-54-2532-71-13). For metabolite analysis, 50 MBq of [^68Ga]NOTA-pentixafor in a total volume of 200 μL of PBS was injected into the tail vein of a CB17 SCID mouse; the animal was sacrificed at 1 h p.i. and blood was collected. After sample preparation, as described in [24], the plasma samples were analyzed by reversed phase (RP)-HPLC and eluate fractions were analyzed using a γ-counter.

CXCR4 = conditions: Jurkat T cells, [^125I]FC131 radioligand; natGa-complexed peptides and metal-free precursors; determined previously; cited from earlier work
Text: Table 1 Comparison of the lipophilicity and the in vitro CXCR4 targeting characteristics of [^68Ga]NOTA-pentixafor and [^68Ga]pentixafor | column: IC50 (nM)

[6] = adrenals, 15.2 MBq, tracer only, i.v., 1.5 h p.i., read-out: Adrenals uptake
[7] = heart, 15.2 MBq, tracer only, i.v., 1.5 h p.i., read-out: Heart uptake
[8] = intestine, 15.2 MBq, tracer only, i.v., 1.5 h p.i., read-out: Intestine uptake
[9] = kidney, 15.2 MBq, tracer only, i.v., 1.5 h p.i., read-out: Kidney uptake
[10] = liver, 15.2 MBq, tracer only, i.v., 1.5 h p.i., read-out: Liver uptake
[11] = lung, 15.2 MBq, tracer only, i.v., 1.5 h p.i., read-out: Lung uptake
[12] = muscle, 15.2 MBq, tracer only, i.v., 1.5 h p.i., read-out: Muscle uptake
[13] = pancreas, 15.2 MBq, tracer only, i.v., 1.5 h p.i., read-out: Pancreas uptake
[14] = spleen, 15.2 MBq, tracer only, i.v., 1.5 h p.i., read-out: Spleen uptake
[15] = stomach, 15.2 MBq, tracer only, i.v., 1.5 h p.i., read-out: Stomach uptake

| Compound | logP [1] | tissue uptake at 1.5 h [3, 6] | tissue uptake at 1.5 h [3, 7] | tissue uptake at 1.5 h [3, 8] | tissue uptake at 1.5 h [3, 9] | tissue uptake at 1.5 h [3, 10] | tissue uptake at 1.5 h [3, 11] | tissue uptake at 1.5 h [3, 12] | tissue uptake at 1.5 h [3, 13] | tissue uptake at 1.5 h [3, 14] | tissue uptake at 1.5 h [3, 15] | further results |
| --- | --- | --- | --- | --- | --- | --- | --- | --- | --- | --- | --- | --- |
| CN1C(=O)[C@@H](Cc2ccc(O)cc2)NC(=O)CNC(=O)[C@H](Cc2ccc3ccccc3c2)NC(=O)[C@H](CCCNC(=N)N)NC(=O)[C@H]1CCCNC(=O)c1ccc(CNC(=O)CN2CCN(CC(=O)O)CCN(CC(=O)O)CCN(CC(=O)O)CC2)cc1 [[^68Ga]pentixafor, metal not drawn] (cyclo([dY][dNMeOrn]([4Amb-DOTA])R[2Nal]G)) | −2.90 | 3.68 ± 0.72 %ID/g | 0.58 ± 0.17 %ID/g | 0.7 ± 0.2 %ID/g | 1.65 ± 0.91 %ID/g | 2.05 ± 0.27 %ID/g | 1.32 ± 0.29 %ID/g | 0.19 ± 0.06 %ID/g | 1.06 ± 0.22 %ID/g | 0.3 ± 0.1 %ID/g | 0.48 ± 0.08 %ID/g | radiometabolites in mouse plasma (metabolic stability) [2]: complete absence of radiometabolites; Intestine uptake [4]: 0.67 ± 0.21 % ID/g |
| CN1C(=O)[C@@H](Cc2ccc(O)cc2)NC(=O)CNC(=O)[C@H](Cc2ccc3ccccc3c2)NC(=O)[C@H](CCCNC(=N)N)NC(=O)[C@H]1CCCNC(=O)c1ccc(CNC(=O)CN2CCN(CC(=O)O)CCN(CC(=O)O)CC2)cc1 [[^68Ga]NOTA-pentixafor, metal not drawn] (cyclo([2Nal]G[dY][dNMeOrn]([4Amb-NOTA])R)) | −2.36 | 0.52 ± 0.3 %ID/g | 0.34 ± 0.19 %ID/g | 1.89 ± 0.83 %ID/g | 2.71 ± 1.06 %ID/g | 2.3 ± 0.88 %ID/g | 0.73 ± 0.25 %ID/g | 0.13 ± 0.1 %ID/g | 0.12 ± 0.05 %ID/g | 0.44 ± 0.22 %ID/g | 0.45 ± 0.21 %ID/g | radiometabolites in mouse plasma (metabolic stability) [5]: complete absence of radiometabolites; tissue uptake at 1.5 h ([3]; adrenals, co-injection of 50 μg AMD3100, n = 3, 1.5 h p.i., read-out: Adrenals uptake): 0.48 ± 0.15 %ID/g; tissue uptake at 1.5 h ([3]; blood, 15.2 MBq, tracer only, i.v., 1.5 h p.i., read-out: Blood uptake): 0.65 ± 0.41 %ID/g; tissue uptake at 1.5 h ([3]; blood, co-injection of 50 μg AMD3100, n = 3, 1.5 h p.i., read-out: Blood uptake): 0.62 ± 0.26 %ID/g; tissue uptake at 1.5 h ([3]; bone, 15.2 MBq, tracer only, i.v., 1.5 h p.i., read-out: Bone uptake): 0.25 ± 0.18 %ID/g; tissue uptake at 1.5 h ([3]; bone, co-injection of 50 μg AMD3100, n = 3, 1.5 h p.i., read-out: Bone uptake): 0.16 ± 0.07 %ID/g; tissue uptake at 1.5 h ([3]; gallbladder, 15.2 MBq, tracer only, i.v., 1.5 h p.i., read-out: Gallbladder uptake): 3.61 ± 3 %ID/g; tissue uptake at 1.5 h ([3]; gallbladder, co-injection of 50 μg AMD3100, n = 3, 1.5 h p.i., read-out: Gallbladder uptake): 5.14 ± 2.24 %ID/g; tissue uptake at 1.5 h ([3]; heart, co-injection of 50 μg AMD3100, n = 3, 1.5 h p.i., read-out: Heart uptake): 0.36 ± 0.14 %ID/g; tissue uptake at 1.5 h ([3]; intestine, co-injection of 50 μg AMD3100, n = 3, 1.5 h p.i., read-out: Intestine uptake): 3.97 ± 0.92 %ID/g; tissue uptake at 1.5 h ([3]; kidney, co-injection of 50 μg AMD3100, n = 3, 1.5 h p.i., read-out: Kidney uptake): 3.56 ± 1.03 %ID/g; tissue uptake at 1.5 h ([3]; liver, co-injection of 50 μg AMD3100, n = 3, 1.5 h p.i., read-out: Liver uptake): 2.02 ± 0.76 %ID/g; tissue uptake at 1.5 h ([3]; lung, co-injection of 50 μg AMD3100, n = 3, 1.5 h p.i., read-out: Lung uptake): 0.95 ± 0.38 %ID/g; tissue uptake at 1.5 h ([3]; muscle, co-injection of 50 μg AMD3100, n = 3, 1.5 h p.i., read-out: Muscle uptake): 0.13 ± 0.05 %ID/g; tissue uptake at 1.5 h ([3]; pancreas, co-injection of 50 μg AMD3100, n = 3, 1.5 h p.i., read-out: Pancreas uptake): 0.16 ± 0.05 %ID/g; tissue uptake at 1.5 h ([3]; spleen, co-injection of 50 μg AMD3100, n = 3, 1.5 h p.i., read-out: Spleen uptake): 0.54 ± 0.19 %ID/g; tissue uptake at 1.5 h ([3]; stomach, co-injection of 50 μg AMD3100, n = 3, 1.5 h p.i., read-out: Stomach uptake): 0.58 ± 0.24 %ID/g |
| Pentixafor |  |  |  |  |  |  |  |  |  |  |  | IC50 (CXCR4): 102 ± 17 nM |
